pEC50: −log10 of the molar value.
Biological target: T1, human GPBAR1 receptor (Homo sapiens, UniProt Q8TDU6)
T1 construct: expressed in transfected cells
T1 sequence (Q8TDU6 1-330): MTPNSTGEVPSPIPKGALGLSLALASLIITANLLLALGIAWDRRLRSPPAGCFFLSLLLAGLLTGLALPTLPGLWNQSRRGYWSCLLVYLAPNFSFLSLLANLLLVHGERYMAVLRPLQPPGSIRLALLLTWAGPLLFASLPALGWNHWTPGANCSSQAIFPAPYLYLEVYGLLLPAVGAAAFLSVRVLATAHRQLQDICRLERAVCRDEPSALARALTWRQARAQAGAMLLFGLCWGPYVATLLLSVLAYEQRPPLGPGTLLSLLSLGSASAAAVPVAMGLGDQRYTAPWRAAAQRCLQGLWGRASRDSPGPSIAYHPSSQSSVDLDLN
Test: functional cAMP assay in CHO-dhfr(minus) cells expressing human GPBAR1 receptors
Type: cell-based
Details: functional cAMP assay, 30 min at 30° C., read-out: human EC50
Outline: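 Agonist cAMP read-out: stable GPBAR1 CHO-dhfr− clone, 30 min compound exposure at 30° C following 30 min IBMX (1 mM) preincubation in Krebs Ringer bicarbonate. Time-resolved energy-transfer detection gives EC50; parental CHO cells serve as counter-screen.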

pEC50	SMILES
5.06	O/N=C(/CC(O)(c1ccccc1)c1ccccc1)c1ccncc1 [Example 155, (Z)-3-Hydroxy-3,3-diphenyl-1-pyridin-4-yl-propan-1-one oxime]

Same assay, conditions: human EC50, functional cAMP assay, 30 min at 30° C.

SMILES	pEC50
Cc1cc(/C(CC(c2ccc(-c3ccc(C(=O)O)cc3)cc2)c2ncccc2C)=N/O)ccn1 (centres unmarked) [Example 117, (E)-4′-[3-[Hydroxyimino]-3-(2-methyl-pyridin-4-yl)-1-(3-methyl-pyridin-2-yl)-propyl]-biphenyl-4-carboxylic acid]	6.99
CNS(=O)(=O)c1ccc(-c2ccc(C(C/C(=N\O)c3ccncc3)c3ccccc3)cc2)cc1 (centres unmarked) [Example 21, 4′-{3-[(E)-Hydroxyimino]-1-phenyl-3-pyridin-4-yl-propyl}-biphenyl-4-sulfonic acid methylamide]	6.52
Cc1cc(C(CC(c2cccc(Br)c2)c2ccccc2C)=NO)ccn1 (racemic) [Example 98, 3-(3-Bromo-phenyl)-1-(2-methyl-pyridin-4-yl)-3-o-tolyl-propan-1-one oxime]	6.84
Cc1cc(/C(CC(c2ccccc2)c2ccccc2)=N/O)cc(F)n1 [Example 56, (E)-1-(2-Fluoro-6-methyl-pyridin-4-yl)-3,3-diphenyl-propan-1-one oxime]	6.69
Cn1cc(/C(CC(c2ccccc2Cl)C2CCCC2)=N/O)ccc1=O (centres unmarked) [Example 197, 5-{3-(2-Chloro-phenyl)-3-cyclopentyl-1-[(E)-hydroxyimino]-propyl}-1-methyl-1H-pyridin-2-one]	7.92
Cc1cc(/C(CC(c2ccc(Br)cc2)c2ccc(Cl)cc2F)=N/O)ccn1 (centres unmarked) [Example 147, (E)-3-(4-Bromo-phenyl)-3-(4-chloro-2-fluoro-phenyl)-1-(2-methyl-pyridin-4-yl)-propan-1-one oxime]	6.33
CCOc1ccc([C@H](C/C(=N\O)c2ccnc(C)c2)c2ccc(Cl)cc2C)cc1 [Example 366, (S)-3-(4-Chloro-2-methyl-phenyl)-3-(4-ethoxy-phenyl)-1-(2-methyl-pyridin-4-yl)-propan-1-one oxime]	6.77
Cc1cc(/C(C[C@H](c2ccc(N3CCOCC3)cc2)c2ccccc2C)=N/O)ccn1 [Example 264, (E,R)-1-(2-Methyl-pyridin-4-yl)-3-(4-morpholin-4-yl-phenyl)-3-o-tolyl-propan-1-one oxime]	8.70
Cc1cc(/C(C[C@H](c2ccc([C@H]3CC[C@@H](C(=O)O)CC3)cc2)c2ccccc2C)=N/O)ccn1 [Example 492, cis-4-{4-[(R)-3-[(E)-hydroxyimino]-3-(2-methyl-pyridin-4-yl)-1-o-tolyl-propyl]-phenyl}-cyclohexanecarboxylic acid]	7.74
Cc1cc(/C(C[C@H](c2ccc(C3CCN(C(=O)OC(C)(C)C)CC3)cc2)c2ccc(Cl)cc2C)=N/O)ccn1 [Example 387, (R,E)-tert-Butyl 4-(4-(1-(4-chloro-2-methylphenyl)-3-(hydroxyimino)-3-(2-methylpyridin-4-yl)propyl)phenyl)piperidine-1-carboxylate]	6.43
CC(C)CC(CC(=NO)c1ccncc1)c1ccc(Br)cc1 (racemic) [Example 114, 3-(4-Bromo-phenyl)-5-methyl-1-pyridin-4-yl-hexan-1-one oxime]	5.96
O/N=C(\CC(c1ccccc1)c1ccccc1)c1ccncc1 [Example 14, (E)-3,3-Diphenyl-1-pyridin-4-yl-propan-1-one oxime]	7.28
Cc1ccccc1C(CC(=NO)c1cc(F)ncc1Cl)c1ccc(Br)cc1 (racemic) [Example 121, 3-(4-Bromo-phenyl)-1-(5-chloro-2-fluoro-pyridin-4-yl)-3-o-tolyl-propan-1-one oxime]	7.62
Cc1ccccc1C(C/C(=N\O)c1cc(Cl)ccc1Cl)c1ccc(Br)cc1 (single isomer, unassigned; (+)) [Example 50, (+)-(E)-3-(4-Bromo-phenyl)-1-(2,5-dichloro-phenyl)-3-o-tolyl-propan-1-one oxime]	6.11
Cc1cc(/C(CC(c2ccc(-c3ccc(C(=O)O)cc3C)cc2)c2ccc(Cl)cc2F)=N/O)ccn1 (centres unmarked) [Example 456, 4′-[1-(4-Chloro-2-fluoro-phenyl)-3-[(E)-hydroxyimino]-3-(2-methyl-pyridin-4-yl)-propyl]-2-methyl-biphenyl-4-carboxylic acid]	7.80
Cc1cc(/C(C[C@H](c2ccc(C3CCC(C(=O)O)CC3)cc2)c2ccccc2C)=N/O)ccn1 (stereo partly drawn) [Example 490, (R,E)-4-(4-(3-(Hydroxyimino)-3-(2-methylpyridin-4-yl)-1-o-tolylpropyl)phenyl)-cyclohexanecarboxylic acid]	7.62

Other lines, results leading:

pEC50	SMILES
6.75	Cc1cc(C(C[C@@H](c2ccc(-c3ccc(C(=O)N[C@H](C)c4ccccc4)cc3)cc2)c2ccccc2C)=NO)ccn1 (racemic) [Example 97, 4′-[(S)-3-[Hydroxyimino]-3-(2-methyl-pyridin-4-yl)-1-o-tolyl-propyl]-biphenyl-4-carboxylic acid ((R)-1-phenyl-ethyl)-amide]
6.64	Cc1ccccc1C(CC(=NO)c1ccnc(Cl)c1)c1ccc(Br)cc1 (racemic) [Example 119, 3-(4-Bromo-phenyl)-1-(2-chloro-pyridin-4-yl)-3-o-tolyl-propan-1-one oxime]
7.10	Cc1cc(/C(C[C@H](c2ccc(C(=O)N(C)CCO)cc2)c2ccccc2C)=N/O)ccn1 [Example 274, N-(2-Hydroxy-ethyl)-4-[(R)-3-[(E)-hydroxyimino]-3-(2-methyl-pyridin-4-yl)-1-o-tolyl-propyl]-N-methyl-benzamide]
6.89	Cc1ccccc1C(C/C(=N\O)c1ccc(=O)n(C)c1)c1ccc(C(=O)NCC(O)C(F)(F)F)cc1 (centres unmarked) [Example 309, (E)-4-(3-(Hydroxyimino)-3-(1-methyl-6-oxo-1,6-dihydropyridin-3-yl)-1-o-tolylpropyl)-N-(3,3,3-trifluoro-2-hydroxypropyl)benzamide]
6.73	Cn1cc(/C(CC(c2ccc(C(=O)NC3CC3)c(F)c2)c2ccccc2Cl)=N/O)ccc1=O (centres unmarked) [Example 233, (E)-4-(1-(2-Chlorophenyl)-3-(hydroxyimino)-3-(1-methyl-6-oxo-1,6-dihydropyridin-3-yl)propyl)-N-cyclopropyl-2-fluorobenzamide]
6.94	Cc1ccccc1C(C/C(=N\O)c1ccn(C)c(=O)c1)c1ccc(Br)cc1 (centres unmarked) [Example 110, 4-{3-(4-Bromo-phenyl)-1-[(E)-hydroxyimino]-3-o-tolyl-propyl}-1-methyl-1H-pyridin-2-one]
7.21	Cc1cc(Cl)ccc1C(C/C(=N\O)c1ccc(=O)n(C)c1)c1ccc(OS(C)(=O)=O)c(F)c1 (centres unmarked) [Example 329, Methanesulfonic acid 4-[1-(4-chloro-2-methyl-phenyl)-3-[(E)-hydroxyimino]-3-(1-methyl-6-oxo-1,6-dihydro-pyridin-3-yl)-propyl]-2-fluoro-phenyl ester]
5.66	CC(=O)NCCNC(=O)c1ccc(C(C/C(=N\O)c2ccc(=O)n(C)c2)c2ccccc2C)cc1 (centres unmarked) [Example 246, (E)-N-(2-Acetamidoethyl)-4-(3-(hydroxyimino)-3-(1-methyl-6-oxo-1,6-dihydropyridin-3-yl)-1-o-tolylpropyl)benzamide]
6.82	Cc1ccccc1C(C/C(=N\O)c1ccc(=O)n(C)c1)c1ccc(C(=O)NCCS(C)(=O)=O)cc1 (centres unmarked) [Example 310, (E)-4-(3-(Hydroxyimino)-3-(1-methyl-6-oxo-1,6-dihydropyridin-3-yl)-1-o-tolylpropyl)-N-(2-(methylsulfonyl)ethyl)benzamide]
